“And” between values parts separate entries of the source, which are not always exact repeats. Equal values may be shown once.
Assays:
[1] = test system: E. coli N282 (L4 mutation); type: cell-based, Escherichia coli; conditions: E. coli N282; polymer alone
[2] = test system: E. coli N281 (L22 mutation); type: cell-based, Escherichia coli; conditions: E. coli N281; polymer alone
[3] = test system: E. coli K-12 resistant wild type; type: cell-based, Escherichia coli; conditions: E. coli K-12 multi-resistant wild type
MRSA 15903 = experiment: microbe, parasite or virus in culture; type: cell-based, Staphylococcus aureus; conditions: S. aureus CI-15903; +polymer (⅓ MIC) C12(5-ene)KKNC12KNH2
Description: The fractionary inhibitory (FIC) concentration index for combinations of two antimicrobial agents was calculated as follows: FIC index=FICA+FICB=A/MICA+B/MICB where A and B are the MIC values of agent A and agent B in the combination, MICA and MICB are the MICs of agent A and agent B alone, and FICA and FICB are the FICs of agent A and agent B.
The FIC indexes were interpreted as follows: less than 0.5 indicates a clear re-sensitizing effect; from 0.5 to 4 indicates a marginal or null re-sensitizing effect; and over 4 indicates antagonism.
Experimental data for FIG. 4 were obtained as follows.

[4] = test system: E. coli K-12 efflux knockout mutant; type: cell-based, Escherichia coli; conditions: E. coli K-12 strain with decreased levels of efflux pumps
Description: (§1) MICs were determined by microdilution susceptibility testing in 96-well plates (by Nunc) using inocula of 10^5 bacteria per ml. Cell populations were evaluated by optical density measurements at 620 nm and were calibrated against a set of standards. Hundred (100) μl of a bacterial suspension were added to 100 μl of culture medium (control) or to 100 μl of culture medium containing various polymer concentrations in 2-fold serial dilutions. Inhibition of proliferation was determined by optical density measurements at 620 nm after an incubation period of 24 hours at 37° C.

E. coli CI14213 = type: cell-based, Escherichia coli
Description: as §1

Escherichia coli strains = type: cell-based; conditions: isogenic pair of E. coli K-12 strains
Description: as §1

For `CCCCCCCCCCCC(=O)N[C@@H](CCCCN)C(=O)NCCCCCCCC(=O)N[C@@H](CCCCN)C(=O)NCCCCCCCC(=O)N[C@@H](CCCCN)C(=O)NCCCCCCCC(=O)N[C@@H](CCCCN)C(=O)NCCCCCCCC(=O)N[C@@H](CCCCN)C(=O)NCCCCCCCC(=O)N[C@@H](CCCCN)C(=O)NCCCCCCCC(=O)N[C@@H](CCCCN)C(=O)NCCCCCCCC(=O)N[C@@H](CCCCN)C(N)=O` [C12K(NC8K)7NH2], the MIC of polymer [1] was 1.6 µM and 3.1 µM, the MIC of polymer [2] was 3.1 µM and the “effect of polymer on antibiotics potency” value [3] was “enhanced antibiotics potency”. The MIC (MRSA 15903) was 12.5 µg/mL, the “effect of polymer on antibiotic MICs” value [4] was “not altered significantly” and the MIC of polymer (E. coli CI14213; CI14213) was 3.1 µM. The “re-sensitizing effect of polymer on oxacillin” value (E. coli CI14213; E. coli CI14213, polymer well below MIC (up to ⅛ MIC), 24 hours) was “endowed potency to oxacillin” and the MIC of polymer (Escherichia coli strains) was 3.125 µg/mL.

Reference: patent US20180153995A1, “USE OF ANTIMICROBIAL POLYMERS FOR RE-SENSITIZATION OF MICROORGANISMS UPON EMERGENCE OF RESISTANCE TO ANTI-MICROBIAL AGENTS” (Technion Research & Development Foundation Limited, priority 2008, published 2018)
